# From US5250700A, “Phenyl pyrazolidinones as bronchodilators and anti-inflammatory agents” (American Home Products Corporation, priority 1992, dated 1993)
# Where a name gives a salt, the structure may show the parent alone.
# System: PDE IV
# Experiment: Inhibition of PDE IV isolated from canine tracheal muscle (cAMP metabolism)
# Format: biochemical
# Conditions: canine trachealis PDE IV, 1 μM 3H-cAMP, 10 μM CI-930, 30° C., pH 7.8; reduction expressed relative to 10 μM rolipram
# Procedure: The following assay is employed to assess the ability of the compound of the invention to inhibit PDE IV. A solution containing PDE IV is prepared from canine tracheal muscle as follows: The dog is euthanized with an overdose of euthanasia while under anesthesia induced by a 33 mg/kg IV bolus of Nembutal. The trachealis muscle is removed, cleaned of connective tissue, and minced thoroughly. Three to four grams of tissue is then homogenized in Trim-HCl buffer (pH 7.8) using a Polytron. The homogenate is then centrifuged at 25,000×g (4° C.) for 30 minutes. The supernatant is decanted and filtered through four layers of gauze, and applied to a 40 cm×2 cm DEAE-Sepharose column that is equilibrated with Trim-HCl buffer (pH 7.8). The column is then washed with an additional 240 mL of buffer to remove unbound proteins. […] Each fraction is assayed for cAMP- and cGMP- metabolizing PDE activity. Fractions eluting at approximately 0.6 M Na-acetate, and containing CAMP but not CGMP metabolic activity are pooled and used as a PDE stock solution for assaying PDE IV inhibitory activity. […] CI-930 is included as an inhibitor of the cyclic GMP-sensitive, cyclic AMP-selectivePDE (PDE III) that is also present in the PDE IV stock solution when prepared as described above.
row,Structure (SMILES),IC50
1,"CCN(CC)CCNC(=O)N1C(=O)CC(c2ccc(OC)c(OC3CCCC3)c2)N1C (stereo not shown) [Example 36, 3-(3-Cyclopentyloxy-4-methoxyphenyl)-2-methyl-5-oxo-pyrazolidine-1-carboxylic acid 2-(diethyl-amino) ethylamide]",5600 nM
2,"COc1ccc(C2CC(=O)N(Cc3cncc(Br)c3)N2C)cc1OC1CCCC1 (stereo not shown) [Example 27, 2-[(5-bromo-3-pyridinyl)methyl]-5-[3-(cyclopentyloxy)-4-methoxyphenyl]-1-methyl-3-pyrazolidinone hydrochloride]",940 nM
3,"COc1ccc(C2CC(=O)N(C(=O)NC3CCCCC3)N2C)cc1OC1CCCC1 (stereo not shown) [Example 18, N-cyclohexyl-3-[3-(cyclopentyloxy)-4-methoxyphenyl]-2-methyl-5-oxo-1-pyrazolidine carboxamide hydrochloride]",100 nM
4,"COc1ccc(C2CC(=O)N(C(=O)NCCc3cccn3C)N2C)cc1OC1CCCC1 (stereo not shown) [Example 40, 3-(3-Cyclopentyloxy-4-methoxyphenyl)-2-methyl-5-oxo-pyrazolidine-1-carboxylic acid 2-(1-methyl-1H-pyrrol-2-yl) ethylamide]",190 nM
